Nine molecules from ChEMBL document CHEMBL1121748, “Antimycotic imidazoles. 5. Synthesis and antimycotic properties of 1-[[2-aryl-4-(arylalkyl)-1,3-dioxolan-2-yl]methyl]-1H-imidazoles” (1981) can be followed below.

One test concerns Aspergillus fumigatus. The test can be described thus: Antifungal activity against Aspergillus fumigatus. The test is classed as functional.
The subject of a further test is Candida tropicalis. Description: Antifungal activity against Candida tropicalis. The test is classed as functional.
Test [1] has as its system Erysipelothrix rhusiopathiae. The test can be described thus: Antibacterial activity against Erysipelothrix insidiosa. The format is functional.
In the next test the test system is Microsporum canis. Description: Antifungal activity against Microsporum canis. The test is classed as functional.
The subject of another test is Mucor. Description: Antifungal activity against Mucor species. The format is functional.
For a further test, the system named is Phialophora verrucosa. Description: Antifungal activity against Phialophora verrucosa. The format is functional.
For a further test, the system named is Saprolegnia. Description: Antifungal activity against Saprolegnia species. The format is functional.
A further test deals with Sporothrix schenckii. The test can be described thus: Antifungal activity against Sporothrix schenck ii. The test is classed as functional.
In a further test the test system is Streptococcus pyogenes. The test can be described thus: Antibacterial activity against Streptococcus pyogenes. The format is functional.
Test [2] deals with Staphylococcus haemolyticus. Description: Antibacterial against Staphylococcus hemolyticus. The test is classed as functional.
For the next test, the system named is Trichophyton benhamiae. The test can be described thus: Antifungal activity against Trichophyton mentagrophytes. The test is classed as functional, trychophyton mentagrophytes.
The test system of the next test is Trichophyton rubrum. Description: Antifungal activity against Trichophyton rubrum. The test is classed as functional.
Another test concerns Cryptococcus neoformans. Description: Antifungal activity against Cryptococcus neoformans. The test is classed as functional.
In a further test the test system is Candida albicans. The test can be described thus: Antifungal activity against Candida albicans. The test is classed as functional.
Test [3] can be described thus: Ratio of animals cured to that of animals infected, tested in vivo for antifungal activity against cutaneous candidosis in guinea pig; 0/2. Note: test concentration or dose not given here. The test is classed as functional.

As to `Clc1ccc(C2COC(Cn3ccnc3)(c3ccccc3Cl)O2)cc1` (stereo not given), the Inhibition with Aspergillus fumigatus was below 1 µg/mL; in the test with Candida tropicalis, 100 µg/mL; in test [1], below 1 µg/mL; with Microsporum canis, below 1 µg/mL; in the test with Mucor, 100 µg/mL; in the test with Phialophora verrucosa, 100 µg/mL. Also, the Inhibition with Saprolegnia was 10 µg/mL; with Sporothrix schenckii it was 10 µg/mL; in the test with Streptococcus pyogenes, below 1 µg/mL; in test [2], 100 µg/mL; in the test on Trichophyton benhamiae it was below 1 µg/mL; in the test with Trichophyton rubrum, below 1 µg/mL. The Inhibition in the test with Cryptococcus neoformans and in the test on Candida albicans was 100 µg/mL throughout.

As for `Clc1ccc(C2COC(Cn3ccnc3)(c3ccc(Br)cc3)O2)c(Cl)c1` (stereo not given), the Inhibition in the test with Aspergillus fumigatus is above 100 µg/mL; in the test on Candida tropicalis, above 100 µg/mL; in test [1], 1 µg/mL; with Microsporum canis, 10 µg/mL; with Mucor, 100 µg/mL; with Phialophora verrucosa, above 100 µg/mL. For the same molecule, the Inhibition in the test on Saprolegnia was above 100 µg/mL; with Sporothrix schenckii, 100 µg/mL; in the test on Streptococcus pyogenes, 1 µg/mL; in test [2] it was 100 µg/mL; with Trichophyton benhamiae, 10 µg/mL; in the test on Trichophyton rubrum, below 1 µg/mL. The Inhibition in the test on Cryptococcus neoformans and in the test with Candida albicans was above 100 µg/mL throughout. In addition, in test [3], the Ratio came out at 0.

On to `Cc1ccc(C2(Cn3ccnc3)OCC(c3ccc(Cl)cc3Cl)O2)cc1` (stereo not given), for which the Inhibition in the test on Aspergillus fumigatus was 100 µg/mL; in the test on Candida tropicalis, above 100 µg/mL; in test [1] it was below 1 µg/mL; with Microsporum canis it was 10 µg/mL; with Mucor, 100 µg/mL; with Phialophora verrucosa, 100 µg/mL. Further, the Inhibition with Saprolegnia was 100 µg/mL; with Sporothrix schenckii, 10 µg/mL; with Streptococcus pyogenes, below 1 µg/mL; in test [2], 1 µg/mL; with Trichophyton benhamiae it was below 1 µg/mL; in the test on Trichophyton rubrum, below 1 µg/mL. Further, the Inhibition is 10 µg/mL in the test with Cryptococcus neoformans and above 100 µg/mL in the test on Candida albicans. Further, in test [3], the Ratio is on record as 0.

On to `Clc1ccccc1C1(Cn2ccnc2)OCC(c2ccc(Br)cc2)O1` (stereo not given), for which the Inhibition was below 1 µg/mL with Aspergillus fumigatus; 10 µg/mL in the test with Candida tropicalis; 10 µg/mL in test [1]; below 1 µg/mL in the test with Microsporum canis; 10 µg/mL with Mucor; 10 µg/mL in the test on Phialophora verrucosa. Further, the Inhibition was 10 µg/mL with Saprolegnia; 10 µg/mL in the test with Sporothrix schenckii; 10 µg/mL in the test with Streptococcus pyogenes; 10 µg/mL in test [2]; below 1 µg/mL with Trichophyton benhamiae; below 1 µg/mL in the test on Trichophyton rubrum. In addition, the Inhibition in the test on Cryptococcus neoformans is below 1 µg/mL; in the test on Candida albicans, 100 µg/mL.

For the molecule `Clc1ccc(C2(Cn3ccnc3)OCC(c3ccccc3)O2)cc1` (stereo not given), the Inhibition in the test on Aspergillus fumigatus was 10 µg/mL; in the test on Candida tropicalis, above 100 µg/mL; in [1] it was 1 µg/mL; in the test with Microsporum canis, 10 µg/mL; in the test with Mucor, 100 µg/mL; in the test with Phialophora verrucosa, 100 µg/mL. Further, the Inhibition is 100 µg/mL in the test with Saprolegnia; 10 µg/mL with Sporothrix schenckii; below 1 µg/mL in the test with Streptococcus pyogenes; 10 µg/mL in test [2]; below 1 µg/mL in the test with Trichophyton benhamiae; below 1 µg/mL in the test on Trichophyton rubrum. Also, the Inhibition in the test on Cryptococcus neoformans was 10 µg/mL; with Candida albicans it was 100 µg/mL.

`COc1ccc(C2(Cn3ccnc3)OCC(c3ccc(Cl)cc3)O2)cc1` (stereo not given): the Inhibition in the test with Aspergillus fumigatus is below 1 µg/mL; with Candida tropicalis it was above 100 µg/mL; in [1] it was 10 µg/mL; with Microsporum canis, below 1 µg/mL; with Mucor, 100 µg/mL; in the test with Phialophora verrucosa, 100 µg/mL. The Inhibition is 100 µg/mL with Saprolegnia; 10 µg/mL in the test with Sporothrix schenckii; 10 µg/mL with Streptococcus pyogenes; 100 µg/mL in test [2]; below 1 µg/mL in the test on Trichophyton benhamiae; 10 µg/mL in the test on Trichophyton rubrum. Moreover, the Inhibition in the test on Cryptococcus neoformans and with Candida albicans was above 100 µg/mL each time. The Ratio in test [3] is listed as 0.

With `Clc1ccc(C2(Cn3ccnc3)OCC(c3ccccc3Cl)O2)c(Cl)c1` (stereo not given), the Inhibition is 100 µg/mL in the test with Aspergillus fumigatus; 100 µg/mL in the test on Candida tropicalis; below 1 µg/mL in test [1]; 10 µg/mL in the test on Microsporum canis; 100 µg/mL in the test on Mucor; 100 µg/mL in the test with Phialophora verrucosa. The Inhibition in the test on Saprolegnia is 100 µg/mL; in the test on Sporothrix schenckii it was 10 µg/mL; in the test on Streptococcus pyogenes, below 1 µg/mL; in [2], 1 µg/mL; in the test with Trichophyton benhamiae, below 1 µg/mL; with Trichophyton rubrum, below 1 µg/mL. The values for the Inhibition with Cryptococcus neoformans and with Candida albicans were below 1 µg/mL and 100 µg/mL, respectively.

In the case of `Cc1ccc(C2(Cn3ccnc3)OCC(c3ccc(Cl)cc3)O2)cc1` (stereo not given), the Inhibition with Aspergillus fumigatus is below 1 µg/mL; with Candida tropicalis it was 100 µg/mL; in test [1] it was below 1 µg/mL; with Microsporum canis it was below 1 µg/mL; with Mucor, 10 µg/mL; in the test on Phialophora verrucosa, 100 µg/mL. The Inhibition in the test on Saprolegnia was 100 µg/mL; with Sporothrix schenckii, 10 µg/mL; in the test on Streptococcus pyogenes it was below 1 µg/mL; in [2], 10 µg/mL; with Trichophyton benhamiae it was below 1 µg/mL; in the test with Trichophyton rubrum, below 1 µg/mL. Further, the Inhibition with Cryptococcus neoformans was below 1 µg/mL; with Candida albicans it was above 100 µg/mL. The Ratio in [3] is 0.

As to `Brc1ccc(C2COC(Cn3ccnc3)(c3ccccc3)O2)cc1` (stereo not given), the Inhibition was 10 µg/mL in the test on Aspergillus fumigatus; above 100 µg/mL with Candida tropicalis; 1 µg/mL in test [1]; below 1 µg/mL in the test on Microsporum canis; 100 µg/mL in the test with Mucor; 100 µg/mL in the test on Phialophora verrucosa. For the same molecule, the Inhibition in the test with Saprolegnia was 100 µg/mL; with Sporothrix schenckii, 10 µg/mL; in the test on Streptococcus pyogenes, below 1 µg/mL; in test [2], above 100 µg/mL; in the test on Trichophyton benhamiae, below 1 µg/mL; in the test with Trichophyton rubrum it was below 1 µg/mL. The figures for the Inhibition in the test on Cryptococcus neoformans and in the test on Candida albicans were 10 µg/mL and 100 µg/mL, respectively.
